Measured values reported in US10882863B2, “Compounds for reducing c-Myc in c-Myc overexpressing cancers background” (The Trustees of Columbia University in the City of New York, priority 2016, dated 2021).
Like-named read-outs stand apart in the source and are kept apart here.

Assays:
c-Myc [1] = assay: Western blot of c-Myc level in LY7 (GCB-DLBCL) cells; format: cell-based; settings: for reduction in c-Myc (Western blot): LY-7, 25 uM, 6 hours
Experimental: (§1) Western blot was performed on whole protein extract from cultured cells under specified treatment conditions, most often for 24 hours. Western blotting was performed according to standard protocols, using the chemiluminescence detection system from Thermo Scientific. The primary antibodies were purchased from Cell Signaling Technology unless specified otherwise, and were against these proteins: 4EBP1, phos-4EBP1, S6K, phos-S6K, Bcl2, Bcl-xL, PARP, c-myc, B-catenin, P-4EBP1 (S65), P-4EBP1 (T70). Signals of beta-actin and GAPDH were used as loading control. Goat anti-rabbit or anti-mouse secondary antibodies were purchased from Santa Cruz Biotechnology.
(§2) The lymphoma cell lines LY10 and LY7 were treated with PF4800567 (PF), Cal-101 (Cal), TGR-1202 (TG) and CUX-03166 as single agents for 6 hours all at 25 uM concentrations. Protein extracts were processed for Western blot using antibodies against c-Myc, B-Catenin, phosphorylated 4EBP1, total 4EBP1, and beta actin.
(§3) FIG. 6. […] Protein extracts were processed for Western blot using antibodies against c-Myc, B-Catenin, phosphorylated 4EBP1, total 4EBP1, P-p70S6K, P70S6K, PARP and beta actin.

phosphorylation of 4EBP1 [2] = assay: Western blot of phosphorylated 4EBP1 in GCB-DLBCL lymphoma cell line; format: cell-based; settings: 12 hours, 15 and 20 uM
Experimental: as §1, §3

LY7 cells = assay: Cell Titer Glo viability, lymphoma cell line LY7 (OCI-LY7, GCB-DLBCL); format: cell-based; settings: for viability at 15 µM: LY7, 15 uM; for viability at 25 µM: LY7, 25 uM
Experimental: (§4) Cytotoxicity was performed on cultured cells using Cell Titer Glo, as previously described. Experiments were carried out in 96-well plates, with each treatment in triplicate. Samples were taken at typically 24 hours, 48 hours, and/or 72 hours after treatment, as indicated. Cytotoxicity was expressed by the decreasing percentage of live cells in each treatment relative to the untreated control from the same experiment, as a function of time. IC50 (half the maximal inhibitory concentration) for each cell line was calculated using the CalcuSyn Version 2.0 software (Biosoft).
The lymphoma cell line LY7 was treated with CUX-03166 for 24 hr (diamond), 48 hours (square) and 72 hours (triangle). Viability was determined similar to that for Example 2. […] At 25 uM concentrations, viability dropped to 0% at 24 hours.
(§5) CUX-0404A reduces viability of OCI-LY7 cells (germinal center diffuse large B cell lymphoma, GCB-DLBCL), see FIG. 4. The lymphoma cell line LY7 was treated with CUX-0404A for 24 hours (dark circle), 48 hours (light circle) or CUX0404B for 24 hours (dark square) or 48 hours (light square). Viability was determined similar to that for FIG. 1. At 15 uM concentrations, viability of cells dropped to 60% at 24 hours, ˜42% at 48 hours, At 25 uM concentrations, viability dropped to 0% at 24 hours. FIG. 5. CUX-0404A reduces viability of Z-138 (mantle cel lymphoma, MCL) cells more potently than TG-1202. […] Viability was determined similar to that for FIG. 1. At 25 uM concentrations, viability of cells dropped to 20% for the CUX-0404A treatment as compared to 60% for TGR-1202

[3] = system: Z-138 (mantle cel lymphoma, MCL) cells; assay: Cell Titer Glo viability, Z-138 mantle cell lymphoma cells; format: cell-based; settings: Homo sapiens; Z-138, 25 uM, 24 hours
Experimental: as §4, §5

LY10 cells = assay: Cell Titer Glo viability, lymphoma cell line LY10; format: cell-based; settings: for viability at 50 µM: LY10, 50 uM
Experimental: as §4
The lymphoma cell line LY10 was treated with CUX-03166 (′166 compound) for 24 hours, 48 hours and 72 hours. Cells were collected from the treatment group and the vehicle treated negative control. Viable cells were quantitated by the Cell-Titer Glo assay from Promega. Viable cells in the treated cells were expressed as a percentage of the negative control. […] At a concentration of 50 uM, viability of cells drop to 0% just at 24 hours of treatment. Cells were also treated with Cal-101 and TGR-1202 and viability was determined at 24 hr. For lower concentrations of 5 μm and 15 μM, viability dropped to ˜80% for both treatments. However, as concentrations increased up to 50 μM, viability remained at ˜80% for Cal-101 and modestly dropped to ˜65% for TGR-1202, as shown in FIG. 1.

CK1epsilon = target: T1, CK1epsilon (Homo sapiens, UniProt P49674); assay: CK1ε kinase activity assay (radioisotope filtration binding assay); format: biochemical; settings: 10 μM ATP, 3-fold serial dilution from 100 μM
T1 construct: purchased Reaction Biology
T1 sequence (P49674 whole entry): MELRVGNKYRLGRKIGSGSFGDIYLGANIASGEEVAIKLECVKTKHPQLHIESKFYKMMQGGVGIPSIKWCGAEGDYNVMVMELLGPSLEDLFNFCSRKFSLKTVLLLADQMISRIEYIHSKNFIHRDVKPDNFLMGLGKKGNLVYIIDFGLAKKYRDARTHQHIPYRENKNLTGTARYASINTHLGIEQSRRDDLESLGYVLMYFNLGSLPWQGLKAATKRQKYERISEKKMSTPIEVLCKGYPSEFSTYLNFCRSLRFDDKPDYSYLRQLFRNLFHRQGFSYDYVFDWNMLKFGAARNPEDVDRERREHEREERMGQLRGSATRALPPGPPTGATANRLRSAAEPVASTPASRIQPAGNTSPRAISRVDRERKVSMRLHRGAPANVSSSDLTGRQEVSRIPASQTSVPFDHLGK
Experimental: The CK-1 assay was conducted according to the techniques disclosed in Anastassiadis et al, Nat Biotechnol; 29(11): 1039-1045. Briefly, specific kinase/substrate pairs along with required cofactors were prepared in reaction buffer; 20 mM Hepes pH 7.5, 10 mM MgCl2, 1 mM EGTA, 0.02% Brij35, 0.02 mg/ml BSA, 0.1 mM Na3VO4, 2 mM DTT, 1% DMSO (for specific details of individual kinase reaction components see Supplementary Table 2, Anastassiadis et al. 2011). Compounds were delivered into the reaction, followed ˜20 minutes later by addition of a mixture of ATP (Sigma, St. Louis Mo.) and 33P ATP (Perkin Elmer, Waltham Mass.) to a final concentration of 10 μM. Reactions were carried out at room temperature for 120 min, followed by spotting of the reactions onto P81 ion exchange filter paper (Whatman Inc., Piscataway, N.J.). Unbound phosphate was removed by extensive washing of filters in 0.75% phosphoric acid. […] IC50 values and curve fits were obtained using Prism (GraphPad Software). • Substrate: Peptide substrate, [KRRRAL[pS]VASLPGL], 20 μM ATP 10 μM • Reaction: Substrate+[γ-33P]-ATP 33P-Substrate+ADP • Assay: radioisotope filtration binding assay (Reaction Biology). […]

c-Myc [4] = assay: Western blot of c-Myc level in LY10 cells; format: cell-based; settings: LY-10, 25 uM, 6 hours, vs vehicle
Experimental: as §1, §2

phosphorylation of 4EBP1 [5] = assay: Western blot of phosphorylated 4EBP1 in LY10 cells; format: cell-based; settings: LY-10, 25 uM, 6 hours, vs vehicle
Experimental: as §1, §2

[6] = 24 hours, read-out: viability (viable cells as percentage of negative control)

SMILES	viability at 15 µM (LY7 cells; 24 hours) [%]	viability at 15 µM (LY7 cells; 48 hours) [%]	viability at 25 µM (LY7 cells; 24 hours) [%]	reduction in c-Myc (Western blot) (c-Myc [1])	viability at 50 µM (LY10 cells; [6]) [%]	inhibition of the c-Myc level (Western blot) (c-Myc [4])	further results
CC(C)Oc1ccc(-c2nn([C@@H](C)c3nc4ncc(Br)c(N(C)C)c4c(=O)n3-c3ccccc3)c3ncnc(N)c23)cc1F [CUX-0404A]	60	~42	0	–	–	–	c-myc level (Western blot) (c-Myc [1]; GCB-DLBCL lymphoma cell line, 12 hours, 20 uM): undetectable; reduction of c-Myc level (Western blot) (c-Myc [1]; GCB-DLBCL lymphoma cell line, 12 hours, 15 and 20 uM, vs vehicle): significantly greater reduction; inhibition of phosphorylation of 4EBP1 (Western blot) (phosphorylation of 4EBP1 [2]): Potent Inhibition; viability at 25 µM [3]: 20%; viability at 20 µM (LY10 cells; LY10 (as printed in summary), 20 μM, 48 hours): 0%; viability at 25 µM (LY10 cells; LY10 (as printed in summary), 25 μM, 24 hours, read-out: viability): 0%; IC50 (CK1epsilon): 3.21 µM
CC[C@@H](c1nc2cccc(F)c2c(=O)n1-c1ccccc1)n1nc(-c2ccc(OC(C)C)c(F)c2)c2c(N)ncnc21 [CUX-03166]	40	10	0	undetectable level	0	significantly greater reduction	increase in potency in inhibiting c-Myc compared to TGR-1202 (c-Myc [1]; LY7 cells, Western blot): near-fiftyfold increase in potency; viability at 15 µM (LY7 cells; 72 hours): ~0%; viability at 25 µM (LY10 cells; LY10, 25 uM, 48 hours, read-out: viability (viable cells as percentage of negative control)): 0%
CC[C@H](Nc1ncnc2[nH]cnc12)c1nc2cccc(F)c2c(=O)n1-c1ccccc1 [Cal-101, reference compound]	–	–	–	–	~80	–	–
Nc1ncnc2c1c(COc1cccc(Cl)c1)nn2C1CCOCC1 [PF4800, reference compound]	–	–	–	modest reduction	–	moderate inhibition	inhibition of phosphorylation of 4EBP1 (Western blot) (phosphorylation of 4EBP1 [5]): moderate inhibition
